{
  "source": "ChEMBL document CHEMBL5233257",
  "about": "“Anticancer property of ginsenoside Rh2 from ginseng” (Eur J Med Chem, 2020)",
  "key": {"HepG2 [1]": {"system": "HepG2", "assay": "Induction of apoptosis in human HepG2 cells incubated for 72 hrs", "type": "functional, cell-based", "settings": "HepG2, 72 h"}, "HepG2 [2]": {"system": "HepG2", "assay": "Induction of apoptosis in human HepG2 cells incubated for 24 hrs", "type": "functional, cell-based", "settings": "HepG2, 24 h"}, "HepG2 [3]": {"system": "HepG2", "assay": "Induction of apoptosis in human HepG2 cells incubated for 48 hrs by PI/Annexin V-FITC analysis", "type": "functional, cell-based", "settings": "HepG2, 48 h"}, "HepG2 [4]": {"system": "HepG2", "assay": "Induction of apoptosis in human HepG2 cells incubated for 72 hrs by PI/Annexin V-FITC analysis", "type": "functional, cell-based", "settings": "HepG2, 72 h"}, "HepG2 [5]": {"system": "HepG2", "assay": "Induction of apoptosis in human HepG2 beta-catenin cells incubated for 48 hrs by PI/Annexin V-FITC analysis", "type": "functional, cell-based", "settings": "HepG2, 48 h"}, "HepG2 [6]": {"system": "HepG2", "assay": "Induction of apoptosis in human HepG2 beta-catenin cells incubated for 72 hrs by PI/Annexin V-FITC analysis", "type": "functional, cell-based", "settings": "HepG2, 72 h"}, "HepG2 [7]": {"system": "HepG2", "assay": "Induction of cell death in human HepG2 cells assessed as lethal dose", "type": "functional", "settings": "read-out: LD50 (the source's name)"}, "HCT-116 [8]": {"system": "HCT-116", "assay": "Induction of cell death in human HCT-116 cells incubated for 48 hrs by trypan blue staining based analysis", "type": "functional", "settings": "HCT-116, 48 h"}, "SW480 [9]": {"system": "SW480", "assay": "Induction of cell death in human SW480 cells incubated for 48 hrs by trypan blue staining based analysis", "type": "functional", "settings": "SW480, 48 h"}, "HL-60 [10]": {"system": "HL-60", "assay": "Induction of apoptosis in human HL-60 cells assessed as reduction in cell viability incubated for 72 hrs by CCK-8 assay", "type": "functional, cell-based", "settings": "HL-60, 72 h"}, "Kasumi 1": {"system": "Kasumi 1", "assay": "Induction of apoptosis in human Kasumi 1 cells assessed as reduction in cell viability incubated for 72 hrs by CCK-8 assay", "type": "functional, cell-based", "settings": "Kasumi 1, 72 h"}, "HL-60 [11]": {"system": "HL-60", "assay": "Induction of apoptosis in human HL-60 cells", "type": "functional, cell-based"}, "HL-60 [12]": {"system": "HL-60", "assay": "Cytotoxicity against human HL-60 cells measured after 24 hrs by MTT assay", "type": "functional, cell-based", "settings": "HL-60, 24 h"}, "U-937": {"system": "U-937", "assay": "Cytotoxicity against human U-937 cells measured after 24 hrs by MTT assay", "type": "functional, cell-based", "settings": "U-937, 24 h"}, "THP-1": {"system": "THP-1", "assay": "Induction of apoptosis in human THP-1 cells", "type": "functional, cell-based"}, "K562": {"system": "K562", "assay": "Cytotoxicity against human K562 cells incubated for 48 hrs by CCK-8 assay", "type": "functional, cell-based", "settings": "K562, 48 h"}, "KG-1 [13]": {"system": "KG-1", "assay": "Cytotoxicity against human KG-1 alpha cells incubated for 48 hrs by CCK-8 assay", "type": "functional, cell-based", "settings": "KG-1, 48 h"}, "KG-1 [14]": {"system": "KG-1", "assay": "Cytotoxicity against human KG-1 alpha cells", "type": "functional, cell-based"}, "REH": {"system": "REH", "assay": "Induction of apoptosis in human REH cells", "type": "functional, cell-based"}, "Jurkat": {"system": "Jurkat", "assay": "Induction of apoptosis in human Jurkat cells", "type": "functional, cell-based"}, "[15]": {"assay": "Inhibition of proliferation in human Jurkat cells assessed as reduction in cell viability incubated for 48 hrs by CCK-8 assay", "type": "functional, cell-based"}, "HeLa": {"system": "HeLa", "assay": "Induction of apoptosis in human HeLa cells incubated for 2 hrs by fluorescence microscopic analysis", "type": "functional, cell-based"}, "SK-HEP1": {"system": "SK-HEP1", "assay": "Induction of apoptosis in human SK-HEP1 cells incubated for 2 hrs by fluorescence microscopic analysis", "type": "functional, cell-based", "settings": "SK-HEP1, 2 h"}, "SW480 [16]": {"system": "SW480", "assay": "Induction of apoptosis in human SW480 cells incubated for 2 hrs by fluorescence microscopic analysis", "type": "functional, cell-based", "settings": "SW480, 2 h"}, "PC-3 [17]": {"system": "PC-3", "assay": "Antiproliferative activity against human PC-3 cells", "type": "functional, cell-based"}, "HCT-116 [18]": {"system": "HCT-116", "assay": "Cytotoxicity against human HCT-116 assessed as reduction in cell viability by MTT assay", "type": "functional, cell-based"}, "LNCaP [19]": {"system": "LNCaP", "assay": "Antiproliferative activity against human LNCaP cells incubated for 3 days", "type": "functional, cell-based", "settings": "72 h"}, "PC-3 [20]": {"system": "PC-3", "assay": "Antiproliferative activity against human PC-3 cells incubated for 3 days", "type": "functional, cell-based", "settings": "PC-3, 72 h"}, "DU-145": {"system": "DU-145", "assay": "Antiproliferative activity against human DU-145 cells incubated for 3 days", "type": "functional, cell-based", "settings": "DU-145, 72 h"}, "LNCaP [21]": {"system": "LNCaP", "assay": "Antiproliferative activity against human LNCaP cells", "type": "functional, cell-based"}, "MDA-MB-231 [22]": {"system": "MDA-MB-231", "assay": "Induction of apoptosis in human MDA-MB-231 cells assessed as inhibition of cell viability", "type": "functional, cell-based"}, "MCF7 [23]": {"system": "MCF7", "assay": "Induction of apoptosis in human MCF7 cells assessed as inhibition of cell viability", "type": "functional, cell-based"}, "MDA-MB-231 [24]": {"system": "MDA-MB-231", "assay": "Antiproliferative activity against human MDA-MB-231 cells", "type": "functional, cell-based"}, "MCF7 [25]": {"system": "MCF7", "assay": "Antiproliferative activity against human MCF7 cells", "type": "functional, cell-based"}, "A549": {"system": "A549", "assay": "Antiproliferative activity against human A549 cells", "type": "functional, cell-based"}, "[26]": {"assay": "Cytotoxicity against human HRA cells assessed as reduction in cell viability measured after 5 days by crystal violet staining based analysis", "type": "functional", "settings": "120 h"}, "[27]": {"assay": "Cytotoxicity against human KK cells assessed as reduction in cell viability measured after 5 days by crystal violet staining based analysis", "type": "functional", "settings": "120 h"}, "[28]": {"assay": "Cytotoxicity against human KF cells assessed as reduction in cell viability measured after 5 days by crystal violet staining based analysis", "type": "functional", "settings": "120 h"}, "[29]": {"assay": "Cytotoxicity against human KFR cells assessed as reduction in cell viability measured after 5 days by crystal violet staining based analysis", "type": "functional", "settings": "120 h"}, "B16-F10": {"system": "B16-F10", "assay": "Induction of cell death in mouse B16-F10 cells", "type": "functional, cell-based"}, "MDA-MB-231 [30]": {"system": "MDA-MB-231", "assay": "Induction of cell death in human MDA-MB-231 cells", "type": "functional, cell-based"}, "Huh-7": {"system": "Huh-7", "assay": "Induction of cell death in human Huh-7 cells", "type": "functional, cell-based"}, "B16": {"system": "B16", "assay": "Growth inhibition of mouse B16 cells", "type": "functional, cell-based"}, "[31]": {"assay": "Induction of apoptosis in human HK-1 cells", "type": "functional, cell-based"}},
  "data": [
    {"compound": "CC(C)=CCC[C@](C)(O)[C@H]1CC[C@]2(C)[C@@H]1[C@H](O)C[C@@H]1[C@@]3(C)CC[C@H](O[C@@H]4O[C@H](CO)[C@@H](O)[C@H](O)[C@H]4O)C(C)(C)[C@@H]3CC[C@]12C", "note": "[GINSENOSIDE RH2]", "values": [
      {"measurement": "IC50", "setting": "HepG2 [1]", "value": 1.65, "unit": "µg/mL"},
      {"measurement": "IC50", "setting": "HepG2 [2]", "value": 42.1, "unit": "µM"},
      {"measurement": "IC50", "setting": "HepG2 [3]", "value": 100, "unit": "µM"},
      {"measurement": "IC50", "setting": "HepG2 [4]", "value": 58.1, "unit": "µM"},
      {"measurement": "IC50", "setting": "HepG2 [5]", "value": 129, "unit": "µM"},
      {"measurement": "IC50", "setting": "HepG2 [6]", "value": 83.3, "unit": "µM"},
      {"measurement": "CC50", "setting": "HepG2 [7]", "value": 10, "unit": "µM"},
      {"measurement": "IC50", "setting": "HCT-116 [8]", "value": 35, "unit": "µM"},
      {"measurement": "IC50", "setting": "SW480 [9]", "value": 35, "unit": "µM"},
      {"measurement": "IC50", "setting": "HL-60 [10]", "value": 25.6, "unit": "µM"},
      {"measurement": "IC50", "setting": "Kasumi 1", "value": 60.1, "unit": "µM"},
      {"measurement": "IC50", "setting": "HL-60 [11]", "value": 25, "unit": "µM"},
      {"measurement": "IC50", "setting": "HL-60 [12]", "value": 38, "unit": "µM"},
      {"measurement": "IC50", "setting": "U-937", "value": 38, "unit": "µM"},
      {"measurement": "IC50", "setting": "THP-1", "value": 15, "unit": "µg/mL"},
      {"measurement": "CC50", "setting": "THP-1; read-out: LC50 (the source's name)", "value": 15, "unit": "µg/mL"},
      {"measurement": "IC50", "setting": "K562", "value": 60, "unit": "µM"},
      {"measurement": "IC50", "setting": "KG-1 [13]", "value": 60, "unit": "µM"},
      {"measurement": "IC50", "setting": "KG-1 [14]", "value": 75, "unit": "µM"},
      {"measurement": "IC50", "setting": "REH", "value": 40, "unit": "µM"},
      {"measurement": "IC50", "setting": "Jurkat", "value": 35, "unit": "µM"},
      {"measurement": "IC50", "setting": "[15]", "value": 35, "unit": "µM"},
      {"measurement": "IC50", "setting": "HeLa", "value": 2.52, "unit": "µg/mL"},
      {"measurement": "IC50", "setting": "SK-HEP1", "value": 3.15, "unit": "µg/mL"},
      {"measurement": "IC50", "setting": "SW480 [16]", "value": 4.06, "unit": "µg/mL"},
      {"measurement": "EC50", "setting": "PC-3 [17]", "value": 5.5, "unit": "µM"},
      {"measurement": "IC50", "setting": "HCT-116 [18]", "value": 19.6, "unit": "µM"},
      {"measurement": "IC50", "setting": "LNCaP [19]", "value": 17, "unit": "µM"},
      {"measurement": "IC50", "setting": "PC-3 [20]", "value": 35, "unit": "µM"},
      {"measurement": "IC50", "setting": "DU-145", "value": 38, "unit": "µM"},
      {"measurement": "EC50", "setting": "LNCaP [21]", "value": 4.4, "unit": "µM"},
      {"measurement": "IC50", "setting": "MDA-MB-231 [22]", "value": 50, "unit": "µM"},
      {"measurement": "IC50", "setting": "MCF7 [23]", "value": 50, "unit": "µM"},
      {"measurement": "EC50", "setting": "MDA-MB-231 [24]", "value": 57.4, "unit": "µM"},
      {"measurement": "EC50", "setting": "MCF7 [25]", "value": 52.5, "unit": "µM"},
      {"measurement": "IC50", "setting": "A549", "value": 28.5, "unit": "µg/mL"},
      {"measurement": "IC50", "setting": "[26]", "value": 30, "unit": "µM"},
      {"measurement": "IC50", "setting": "[27]", "value": 45, "unit": "µM"},
      {"measurement": "IC50", "setting": "[28]", "value": 40, "unit": "µM"},
      {"measurement": "IC50", "setting": "[29]", "value": 41, "unit": "µM"},
      {"measurement": "IC50", "setting": "B16-F10", "value": 35.6, "unit": "µM"},
      {"measurement": "IC50", "setting": "MDA-MB-231 [30]", "value": 39.9, "unit": "µM"},
      {"measurement": "IC50", "setting": "Huh-7", "value": 39, "unit": "µM"},
      {"measurement": "IC50", "setting": "B16", "value": 4.1, "unit": "µg/mL"},
      {"measurement": "IC50", "setting": "[31]", "value": 12, "unit": "µM"}
    ]}
  ]
}
